According to BigSolDB 2.1:

COc1ccc2c3c1O[C@H]1[C@@H](O)C=C[C@H]4[C@@H](C2)N(C)CC[C@@]341.O=P(O)(O)O
solubility (mole fraction)
Conditions	293.2 K	298.2 K	303.2 K	308.2 K	313.2 K
in NMP	0.00206	0.00212	0.00239	0.00249	0.00259
in isopropanol	1.96e-05	2.52e-05	2.99e-05	3.6e-05	3.99e-05
